From patent US11046658B2, “Aminopyrazine derivatives as PI3K-γ inhibitors” (Incyte Corporation, priority 2018, dated 2021)
Where a name gives a salt, the structure may show the parent alone. Read-outs that look alike come from different tables or passages of the source.

Experiments:
[1] = molecular target: PI3Kγ (p110γ) Recombinant Human Protein (Homo sapiens (Human), UniProt P48736); assay: PI3K-γ Scintillation Proximity Assay; type: biochemical; conditions: 2 μM ATP, 20 μM PIP2
Source text: (§1) Materials: [γ-^33P]ATP (10 mCi/mL) and Wheat Germ Agglutinin (WGA) YSi SPA Scintillation Beads was purchased from Perkin Elmer (Waltham, Mass.). Lipid kinase substrate, D-myo-Phosphatidylinositol 4,5-bisphosphate (PtdIns(4,5)P2)D (+)-sn-1,2-di-O-octanoylglyceryl, 3-O-phospho linked (PIP2), CAS 204858-53-7, was purchased from Echelon Biosciences (Salt Lake City, Utah). PI3Kγ (p110γ) Recombinant Human Protein was purchased from Life technology (Grand Island, N.Y.). ATP, MgCl2, DTT, EDTA, MOPS and CHAPS were purchased from Sigma Aldrich (St. Louis, Mo.).
(§2) The kinase reaction was conducted in polystyrene 384-well Greiner Bio-one white plate from Thermo Fisher Scientific in a final volume of 25 μL. Inhibitors were first diluted serially in DMSO and added to the plate wells before the addition of other reaction components. The final concentration of DMSO in the assay was 2%. The PI3Kγ assay was carried out at room temperature in 20 mM MOPS, pH 6.7, 10 mM MgCl2, 5 mM DTT and CHAPS 0.03%. Reactions were initiated by the addition of ATP, the final reaction mixture consisted of 20 μM PIP2, 2 μM ATP, 0.5 μCi [γ-^33P] ATP, 13 nM PI3Kγ. Reactions were incubated for 120 min and terminated by the addition of 40 μL SPA beads suspended in quench buffer: 163 mM potassium phosphate pH 7.8, 20% glycerol, 25 mM EDTA. The final concentration of SPA beads is 1.0 mg/mL. After the plate sealing, plates were shaken overnight at room temperature and centrifuged at 1500 rpm for 10 min, the radioactivity of the product was determined by scintillation counting on Topcount (Perkin-Elmer). IC50 determination was performed by fitting the curve of percent of the solvent control activity versus the log of the inhibitor concentration using the GraphPad Prism 6.0 software.

[2] = molecular target: PI3Kδ (p110δ/p85α) Recombinant Human Protein (Homo sapiens (Human), UniProt O00329); assay: PI3Kδ Scintillation Proximity Assay; type: biochemical; conditions: 2 μM ATP, 20 μM PIP2
Source text: as §1, with “PI3Kδ (p110δ/p85α)” for “PI3Kγ (p110γ)”, “Eurofins (St Charles, Mo.).” for “Life technology (Grand Island, N.Y.).”
as §2, with “PI3Kδ” for “PI3Kγ”, “3.4” for “13”, “PI3Kδ.” for “PI3Kγ.”, “(PerkinElmer).” for “(Perkin-Elmer).”

[3] = test system: Phosphorylated Ribosomal Protein S6 (RPS6) in THP-1 cells; assay: THP-1 RPS6 ELISA Assay; type: cell-based, Human; conditions: THP-1 cells, 10 nM MCP-1, read-out: PI3Kγ_THP1_RPS6_ELISA IC50
Method in brief: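 Cells serum-starved overnight, pre-incubated with compounds 2 h at 37° C, then stimulated with 10 nM MCP-1 for 15 min. Lysates assayed for phospho-RPS6 by ELISA read at 450 nm. IC50 from percent inhibition vs log concentration curve fit.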

PI3Kδ (p110δ/p85α) Recombinant Human Protein, sequence (O00329 whole entry): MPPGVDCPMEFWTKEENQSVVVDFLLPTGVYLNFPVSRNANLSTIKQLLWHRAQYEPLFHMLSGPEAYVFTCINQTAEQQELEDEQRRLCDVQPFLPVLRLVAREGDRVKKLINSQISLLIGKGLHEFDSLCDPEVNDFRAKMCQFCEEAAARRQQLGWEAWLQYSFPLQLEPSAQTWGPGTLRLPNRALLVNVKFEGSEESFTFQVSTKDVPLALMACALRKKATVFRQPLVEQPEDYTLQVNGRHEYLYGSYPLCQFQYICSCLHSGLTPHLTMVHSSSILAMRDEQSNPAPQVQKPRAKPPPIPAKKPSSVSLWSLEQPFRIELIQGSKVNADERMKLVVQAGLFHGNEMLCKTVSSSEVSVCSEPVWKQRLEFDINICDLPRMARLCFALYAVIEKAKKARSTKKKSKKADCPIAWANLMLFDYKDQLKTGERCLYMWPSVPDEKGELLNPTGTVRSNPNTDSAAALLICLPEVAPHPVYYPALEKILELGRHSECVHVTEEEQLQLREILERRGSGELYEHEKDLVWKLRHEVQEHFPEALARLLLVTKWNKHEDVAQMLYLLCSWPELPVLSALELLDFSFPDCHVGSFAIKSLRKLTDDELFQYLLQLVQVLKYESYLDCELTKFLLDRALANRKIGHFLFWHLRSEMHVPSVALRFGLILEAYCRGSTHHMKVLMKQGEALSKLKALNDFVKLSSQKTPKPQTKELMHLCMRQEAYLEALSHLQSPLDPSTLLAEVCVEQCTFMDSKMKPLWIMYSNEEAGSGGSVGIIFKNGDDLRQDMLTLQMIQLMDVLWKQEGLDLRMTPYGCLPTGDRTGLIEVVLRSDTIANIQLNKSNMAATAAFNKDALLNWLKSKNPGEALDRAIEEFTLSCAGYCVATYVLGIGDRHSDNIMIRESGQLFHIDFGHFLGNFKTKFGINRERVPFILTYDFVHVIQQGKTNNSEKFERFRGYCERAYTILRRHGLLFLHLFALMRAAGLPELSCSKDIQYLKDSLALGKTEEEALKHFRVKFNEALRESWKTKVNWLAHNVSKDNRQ
PI3Kδ (p110δ/p85α) Recombinant Human Protein, sequence (P27986 whole entry partner): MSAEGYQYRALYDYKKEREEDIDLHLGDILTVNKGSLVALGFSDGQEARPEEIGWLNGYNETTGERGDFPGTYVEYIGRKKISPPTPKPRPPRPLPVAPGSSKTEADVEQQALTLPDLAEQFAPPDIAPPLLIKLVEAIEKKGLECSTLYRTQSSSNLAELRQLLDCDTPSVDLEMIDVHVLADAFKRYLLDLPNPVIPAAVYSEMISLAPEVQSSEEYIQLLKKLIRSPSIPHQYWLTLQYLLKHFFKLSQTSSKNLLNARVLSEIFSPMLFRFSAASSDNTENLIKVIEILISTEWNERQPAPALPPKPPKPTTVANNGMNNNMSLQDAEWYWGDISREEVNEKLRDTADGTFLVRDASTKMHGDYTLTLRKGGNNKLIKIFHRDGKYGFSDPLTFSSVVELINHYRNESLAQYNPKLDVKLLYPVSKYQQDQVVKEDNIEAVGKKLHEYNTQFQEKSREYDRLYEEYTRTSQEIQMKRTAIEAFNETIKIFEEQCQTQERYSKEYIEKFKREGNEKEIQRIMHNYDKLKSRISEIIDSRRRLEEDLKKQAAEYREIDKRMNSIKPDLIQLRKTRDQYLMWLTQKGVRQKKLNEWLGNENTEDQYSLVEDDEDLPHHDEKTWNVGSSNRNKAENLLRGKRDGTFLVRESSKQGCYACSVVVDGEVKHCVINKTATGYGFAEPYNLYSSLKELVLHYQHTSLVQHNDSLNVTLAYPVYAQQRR
PI3Kγ (p110γ) Recombinant Human Protein, sequence (P48736 whole entry): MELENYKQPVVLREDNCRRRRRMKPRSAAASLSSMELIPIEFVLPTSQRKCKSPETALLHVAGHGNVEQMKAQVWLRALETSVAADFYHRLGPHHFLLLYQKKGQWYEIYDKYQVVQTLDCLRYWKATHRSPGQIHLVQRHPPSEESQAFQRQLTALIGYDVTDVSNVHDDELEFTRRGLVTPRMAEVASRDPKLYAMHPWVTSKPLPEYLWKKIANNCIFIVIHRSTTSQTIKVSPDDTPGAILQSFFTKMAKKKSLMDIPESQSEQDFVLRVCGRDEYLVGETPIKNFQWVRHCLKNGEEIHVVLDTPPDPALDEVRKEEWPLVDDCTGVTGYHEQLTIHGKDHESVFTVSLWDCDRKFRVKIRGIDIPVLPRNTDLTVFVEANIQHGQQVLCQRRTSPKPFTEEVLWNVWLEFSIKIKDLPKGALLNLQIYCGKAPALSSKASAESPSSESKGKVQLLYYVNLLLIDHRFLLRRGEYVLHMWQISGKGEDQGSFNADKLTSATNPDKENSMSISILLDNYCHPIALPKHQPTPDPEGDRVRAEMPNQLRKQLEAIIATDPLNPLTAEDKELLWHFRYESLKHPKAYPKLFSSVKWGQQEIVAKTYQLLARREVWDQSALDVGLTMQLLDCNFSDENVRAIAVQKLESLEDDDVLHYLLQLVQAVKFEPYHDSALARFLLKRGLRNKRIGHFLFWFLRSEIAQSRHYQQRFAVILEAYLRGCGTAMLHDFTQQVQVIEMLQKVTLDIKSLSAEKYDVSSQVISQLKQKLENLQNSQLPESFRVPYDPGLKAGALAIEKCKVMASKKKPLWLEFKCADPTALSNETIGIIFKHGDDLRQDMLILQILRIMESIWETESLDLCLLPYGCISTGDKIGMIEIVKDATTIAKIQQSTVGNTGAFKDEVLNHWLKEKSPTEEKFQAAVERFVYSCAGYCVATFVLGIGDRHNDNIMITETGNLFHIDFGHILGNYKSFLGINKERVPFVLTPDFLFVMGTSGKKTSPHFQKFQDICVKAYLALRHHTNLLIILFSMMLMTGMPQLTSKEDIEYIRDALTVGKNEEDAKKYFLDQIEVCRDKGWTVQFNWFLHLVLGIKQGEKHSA

Cc1ccc(C(O)(C(N)=O)C(F)(F)F)cc1-c1cnc(N)c(C2CC(C(=O)NC(C)C)C2)n1 (single isomer, unassigned) [Example 111, 3-(3-Amino-6-(5-(3-amino-1,1,1-trifluoro-2-hydroxy-3-oxopropan-2-yl)-2-methylphenyl)pyrazin-2-yl)-N-isopropylcyclobutane-1-carboxamide] was tested, and the IC50 ([1]; Table A4) was < 100 nM.
With Cc1ccc(C(O)(C(N)=O)C(F)(F)F)cc1-c1cnc(N)c(C2CC(C(=O)NC(C)C)C2)n1 (single isomer, unassigned) [Example 110, 3-(3-Amino-6-(5-(3-amino-1,1,1-trifluoro-2-hydroxy-3-oxopropan-2-yl)-2-methylphenyl)pyrazin-2-yl)-N-isopropylcyclobutane-1-carboxamide] the IC50 ([1]; Table A4) was < 500 nM and the IC50 ([2]; Table A4) was < 500 nM.
With “2-(3-(5-amino-6-(2-methylthiazol-5-yl)pyrazin-2-yl)-4-methylphenyl)-3,3,3-trifluoro-2-hydroxypropanamide trifluoroacetate [Example 72]” the IC50 ([1]; Table A3) was < 100 nM, the IC50 ([3]; Table A3) was < 100 nM and the IC50 ([2]; Table A3) was < 100 nM.
Cc1ccc(C(O)(C(=O)N(C)C)C(F)(F)F)cc1-c1cnc(N)c(-n2cncn2)n1 (stereo not drawn) [Example 95, 2-(3-(5-Amino-6-(1H-1,2,4-triazol-1-yl)pyrazin-2-yl)-4-methylphenyl)-3,3,3-trifluoro-2-hydroxy-N,N-dimethylpropanamide trifluoroacetate] was tested, and the IC50 ([1]; Table A3) was < 500 nM and the IC50 ([2]; Table A3) was < 500 nM.
Cc1ccc(C(O)(C(N)=O)C(F)(F)F)cc1-c1cnc(N)c(C2CN(S(=O)(=O)c3cnn(C)c3)C2)n1 (single isomer, unassigned) [Example 107, 2-(3-(5-Amino-6-(1-((1-methyl-1H-pyrazol-4-yl)sulfonyl)azetidin-3-yl)pyrazin-2-yl)-4-methylphenyl)-3,3,3-trifluoro-2-hydroxypropanamide, trifluoroacetate salt] was tested, and the IC50 ([1]; Table A4) was < 100 nM, the IC50 ([3]; Homo sapiens, Table A4) was < 1000 nM and the IC50 ([2]; Table A4) was < 2000 nM.
CCOC(=O)C1CC(c2nc(-c3cc(C(O)(C(N)=O)C(F)(F)F)ccc3C)cnc2N)C1 (single isomer, unassigned) [Example 108, Ethyl 3-(3-amino-6-(5-(3-amino-1,1,1-trifluoro-2-hydroxy-3-oxopropan-2-yl)-2-methylphenyl)pyrazin-2-yl)cyclobutane-1-carboxylate] was tested, and the IC50 ([1]; Table A4) was < 500 nM and the IC50 ([2]; Table A4) was < 2000 nM.
CCOC(=O)C1CC(c2nc(-c3cc(C(O)(C(N)=O)C(F)(F)F)ccc3C)cnc2N)C1 (single isomer, unassigned) [Example 109, Ethyl 3-(3-amino-6-(5-(3-amino-1,1,1-trifluoro-2-hydroxy-3-oxopropan-2-yl)-2-methylphenyl)pyrazin-2-yl)cyclobutane-1-carboxylate] was tested, and the IC50 ([1]; Table A4) was < 100 nM and the IC50 ([2]; Table A4) was < 500 nM.
